Values belong to the compound of their own block, whether it stands above or below them.
Legend:
[1] = Body and organ weights, mice transplanted with S-180 tumor cells; type: in vivo, Swiss mice; conditions: 7 days
Description: (§1) Body weights (n = 10 mice/group) were determined at the first and last days of treatment. Organ weight alterations (n = 10 mice/group), and hematological and biochemical analysis (n = 5 mice/group) were performed on the last day of experimentation. All systemic toxicological analyses were also performed with 4 healthy animal groups, without the inoculation of S-180, (n = 5 mice/group) treated with 5% DMSO (i.p.), 5-FU 25 mg/Kg/day (i.p.), perillaldehyde 8,9-epoxide 100 mg/kg/day (i.p.) and perillaldehyde 8,9-epoxide 200 mg/kg/day for consecutive 7 days.
(§2) Twenty four hours after the seventh treatment day, blood samples of the animals were collected (retro-orbital plexus) with anesthetized mice (1.5%, isoflurane). Immediately after blood collection the animals were euthanized, and their organs (liver, spleen and kidneys) were removed and weighed. The wet mass of each organ was expressed as grams per 100 grams of body mass and compared to the negative control group.

[2] = Body and organ weights, healthy mice; type: in vivo, Swiss mice; conditions: 7 days
Description: as §1, §2

[3] = Biochemical parameters in blood, healthy mice; type: in vivo, Swiss mice; conditions: 7 days
Description: as §1, §2
(§3) For evaluation of the effect of perillaldehyde 8,9-epoxide on the biochemical parameters aspartate aminotransferase (AST) and alanine aminotransferase (ALT) enzymatic to investigate liver function alterations, creatinine and urea were measured as renal function parameters. For this test, blood samples of the animals were collected without anticoagulant, centrifuged for 10 min at 3500 rpm and 25 °C to obtain […].
(§4) The Clinical Chemistry® kits (Abbott Architect; C8000; Abbott Laboratories, Wiesbaden, Germany) were used for biochemical evaluation of serum samples.

[4] = Hematological parameters in blood, mice with S-180 tumor; type: in vivo, Swiss mice; conditions: 7 days; for Differential Count of Leukocytes, Eosinophil / Differential Count of Leukocytes, Lymphocyte / Differential Count of Leukocytes, Monocyte / Differential Count of Leukocytes, Neutrophil / Total Leukocytes: mice with S-180 tumor
Description: as §1, §2
(§5) For hematological analyses, an aliquot of blood from each animal was placed in ethylene diamine tetracetic acid (EDTA). Hematological parameters, including the total as well as differential counts of leukocytes, including eosinophils, lymphocytes, neutrophils and monocytes determined by standard manual procedures using optical light microscopy.

[5] = tested on: sarcoma 180 tumor cells (S-180); test: In vivo antitumor activity assay, sarcoma 180 tumor growth in mice; parameters: species or system Swiss mice; conditions: 7 consecutive days
Description: Sarcoma 180 (S-180) tumor cells, were obtained through at the Federal University of Ceará, Brazil and maintained in the abdominal cavities of Swiss mice in their ascitic form by ten days.
The effect on tumor growth in vivo was assessed using S-180 ascites tumor cells, according standard protocol. Ten-day-old S-180 ascites tumor cells (2 × 10^6 cells per 0.5 mL) were inoculated subcutaneously into the right axillary region of animals. After 24 h, the animals were separated into 5 groups (n = 10 mice/group) and subjected to intraperitoneal (i.p.) treatment for 7 consecutive days (once a day). Group 1 consisted of animals treated by intraperitoneal (i.p.) administration of negative control—5% Dimethyl sulfoxide (DMSO); Group 2 consisted of animals treated by i.p. administration of positive control—5-fluorouracil 25 mg/kg/day (5-FU; purity > 99%; Sigma Chemical Co., St. Louis, MO, USA); Group 3 consisted of animals treated by i.p. administration of perillaldehyde 8,9-epoxide at 100 mg/kg/day; Group 4 consisted of animals treated by i.p. administration of perillaldehyde 8,9-epoxide at 200 mg/kg/day; Group 5 consisted of animals treated by i.p. administration of perillyl alcohol at 100 mg/kg/day; Group 6 consisted of animals treated by i.p. administration of perillyl alcohol at 200 mg/kg/day. At 24 h from the last day of treatment, under 1.5% isoflurane inhalation anesthesia, the mice were euthanized, and the tumors were weighed. The inhibition ratio of tumor growth (%) was calculated by the following equation: (%) = [(NC − TG)/NC] × 100, where NC is the average tumor weight of the negative control group and TG is the average tumor weight of the treated group.

[6] = Hematological parameters in blood, healthy mice; type: in vivo, Swiss mice; conditions: 7 days
Description: as §1, §2, §5

[7] = Biochemical parameters in blood, mice with S-180 tumor cells; type: in vivo, Swiss mice; conditions: 7 days; for ALT / AST / Creatinine / Urea: mice with S-180 tumor cells
Description: as §1, §2, §3, §4

[8] = Histopathological and macroscopic analyses of livers, kidneys and spleens; type: in vivo, Swiss mice
Description: After being weighed and fixed in 10% formaldehyde; tumors, livers, spleens, and kidneys were submitted for assessment macroscopic (size, coloration and hemorrhage), were cut into small pieces and, after that dehydrated in alcohol, diaphanized in xylene and paraffin-embedded. Subsequently, 5-µm-thick histological sections were obtained and stained with hematoxylin and eosin. Histological analyses were performed by light microscopy in order to assess possible damage caused by treatment.

[9] = tested on: 4 cancer cell lines (colon carcinoma, ovarian adenocarcinoma, glioblastoma, and leukemia); parameters: method as in PMID 26197313; conditions: all of the 4 cell lines studied; cited from earlier work
[10] = tested on: three human tumor cell lines (ovarian adenocarcinoma, colon carcinoma, glioblastoma); parameters: method as in PMID 26197313; conditions: in vitro; cited from earlier work
[11] = mice with tumor S-180, 25 mg/kg/day i.p.
[12] = mice with tumor S-180, 100 mg/kg/day i.p.
[13] = mice with tumor S-180, 200 mg/kg/day i.p.

- Kidney [1, 11]: 1.15 ± 0.04 g/100 g Body Mass
- Liver [1, 11]: 4.99 ± 0.16 g/100 g Body Mass
- Spleen [1, 11]: 0.33 ± 0.02 g/100 g Body Mass
- Variation Body in Mass [1, 11]: -4.46 ± 0.83 g
- Kidney ([2]; 25 mg/kg/day i.p.): 1.13 ± 0.03 g/100 g Body Mass
- Liver ([2]; 25 mg/kg/day i.p.): 4.65 ± 0.21 g/100 g Body Mass
- Spleen ([2]; 25 mg/kg/day i.p.): 0.19 ± 0.02 g/100 g Body Mass
- Variation Body in Mass ([2]; 25 mg/kg/day i.p.): -3.50 ± 0.66 g
- Creatinine ([3]; 25 mg/kg/day i.p.): 0.37 ± 0.02 mg/dL
- Urea ([3]; 25 mg/kg/day i.p.): 49.00 ± 5.86 mg/dL
- Differential Count of Leukocytes, Eosinophil ([4]; 25 mg/kg/day i.p.): 0%
- Differential Count of Leukocytes, Lymphocyte ([4]; 25 mg/kg/day i.p.): 89.0 ± 0.70 %
- Differential Count of Leukocytes, Monocyte ([4]; 25 mg/kg/day i.p.): 0.8 ± 0.37%
- Differential Count of Leukocytes, Neutrophil ([4]; 25 mg/kg/day i.p.): 10.2 ± 0.54 %
- Total Leukocytes ([4]; 25 mg/kg/day i.p.): 2.50 ± 0.32 ^# 10^3 Cells/µL
- Differential Count of Leukocytes, Eosinophil ([6]; 25 mg/kg/day i.p.): 0%
- Differential Count of Leukocytes, Lymphocyte ([6]; 25 mg/kg/day i.p.): 95.8 ± 0.70 %
- Differential Count of Leukocytes, Monocyte ([6]; 25 mg/kg/day i.p.): 1.2 ± 0.70%
- Differential Count of Leukocytes, Neutrophil ([6]; 25 mg/kg/day i.p.): 3.0 ± 0.70 %
- Total Leukocytes ([6]; 25 mg/kg/day i.p.): 2.37 ± 0.77 * 10^3 Cells/µL
- Creatinine ([7]; 25 mg/kg/day i.p.): 0.28 ± 0.09 mg/dL
- Urea ([7]; 25 mg/kg/day i.p.): 50.71 ± 2.18 mg/dL
- macroscopic observation of the spleens ([8]; 25 mg/kg/day i.p., 7 days): Visible atrophy
SMILES: O=c1[nH]cc(F)c(=O)[nH]1 [5-FU, 5-fluorouracil, reference compound]
- ALT ([3]; 25 mg/kg/day i.p.): 47.25 ± 2.8 U/L
- AST ([3]; 25 mg/kg/day i.p.): 102.0 ± 15.06 U/L
- tumor growth inhibition rate ([5]; 25 mg/kg/day i.p.): 68.1%
- mean tumor mass ([5]; 25 mg/kg/day i.p., 24 h after last treatment, NC 1.18 ± 0.07 g): 0.36 ± 0.02 g
- ALT ([7]; 25 mg/kg/day i.p.): 42.8 ± 0.6 U/L
- AST ([7]; 25 mg/kg/day i.p.): 164.4 ± 10.0 U/L

- Kidney [1, 12]: 1.27 ± 0.03 g/100 g Body Mass
- Liver [1, 12]: 4.84 ± 0.07 g/100 g Body Mass
- Spleen [1, 12]: 0.52 ± 0.02 g/100 g Body Mass
- Variation Body in Mass [1, 12]: 1.11 ± 0.19 g
- Kidney [1, 13]: 1.28 ± 0.03 g/100 g Body Mass
- Liver [1, 13]: 4.57 ± 0.09 g/100 g Body Mass
- Spleen [1, 13]: 0.49 ± 0.04 g/100 g Body Mass
- Variation Body in Mass [1, 13]: -1.58 ± 0.33 g
- Kidney ([2]; 100 mg/kg/day i.p.): 1.15 ± 0.06 g/100 g Body Mass
- Liver ([2]; 100 mg/kg/day i.p.): 4.66 ± 0.09 g/100 g Body Mass
- Spleen ([2]; 100 mg/kg/day i.p.): 0.25 ± 0.01 g/100 g Body Mass
- Variation Body in Mass ([2]; 100 mg/kg/day i.p.): 0.90 ± 0.38 g
- Kidney ([2]; 200 mg/kg/day i.p.): 1.17 ± 0.19 g/100 g Body Mass
- Liver ([2]; 200 mg/kg/day i.p.): 5.07 ± 0.13 g/100 g Body Mass
- Spleen ([2]; 200 mg/kg/day i.p.): 0.37 ± 0.06 g/100 g Body Mass
- Variation Body in Mass ([2]; 200 mg/kg/day i.p.): -0.71 ± 0.53 g
- Creatinine ([3]; 100 mg/kg/day i.p.): 0.34 ± 0.01 mg/dL
- Urea ([3]; 100 mg/kg/day i.p.): 54.25 ± 3.82 mg/dL
- Creatinine ([3]; 200 mg/kg/day i.p.): 0.34 ± 0.01 mg/dL
- Urea ([3]; 200 mg/kg/day i.p.): 41.00 ± 4.42 mg/dL
- effect on total leukocyte count (in words) ([4]; healthy mice and mice with S-180, at the doses tested (100 and 200 mg/kg/day i.p.)): caused leukopenia
- Differential Count of Leukocytes, Eosinophil ([4]; 100 mg/kg/day i.p.): 0%
- Differential Count of Leukocytes, Lymphocyte ([4]; 100 mg/kg/day i.p.): 73.2 ± 2.17 %
- Differential Count of Leukocytes, Monocyte ([4]; 100 mg/kg/day i.p.): 0.6 ± 0.40%
- Differential Count of Leukocytes, Neutrophil ([4]; 100 mg/kg/day i.p.): 26.2 ± 5.92 %
- Total Leukocytes ([4]; 100 mg/kg/day i.p.): 5.30 ± 0.37 ^# 10^3 Cells/µL
- Differential Count of Leukocytes, Eosinophil ([4]; 200 mg/kg/day i.p.): 0%
- Differential Count of Leukocytes, Lymphocyte ([4]; 200 mg/kg/day i.p.): 80.6 ± 2.54 %
- Differential Count of Leukocytes, Monocyte ([4]; 200 mg/kg/day i.p.): 0.8 ± 0.34%
- Differential Count of Leukocytes, Neutrophil ([4]; 200 mg/kg/day i.p.): 18.6 ± 6.18 %
- Total Leukocytes ([4]; 200 mg/kg/day i.p.): 6.50 ± 0.65 ^# 10^3 Cells/µL
- Differential Count of Leukocytes, Eosinophil ([6]; 100 mg/kg/day i.p.): 0%
- Differential Count of Leukocytes, Lymphocyte ([6]; 100 mg/kg/day i.p.): 86.0 ± 1.68 %
- Differential Count of Leukocytes, Monocyte ([6]; 100 mg/kg/day i.p.): 1.5 ± 0.86%
- Differential Count of Leukocytes, Neutrophil ([6]; 100 mg/kg/day i.p.): 12.5 ± 1.08 %
- Total Leukocytes ([6]; 100 mg/kg/day i.p.): 3.12 ± 0.38 * 10^3 Cells/µL
- Differential Count of Leukocytes, Eosinophil ([6]; 200 mg/kg/day i.p.): 0%
- Differential Count of Leukocytes, Lymphocyte ([6]; 200 mg/kg/day i.p.): 89.5 ± 0.65 %
- Differential Count of Leukocytes, Monocyte ([6]; 200 mg/kg/day i.p.): 1.3 ± 0.25%
- Differential Count of Leukocytes, Neutrophil ([6]; 200 mg/kg/day i.p.): 9.2 ± 0.85 %
- Total Leukocytes ([6]; 200 mg/kg/day i.p.): 2.62 ± 0.47 * 10^3 Cells/µL
- Creatinine ([7]; 100 mg/kg/day i.p.): 0.34 ± 0.01 mg/dL
- Urea ([7]; 100 mg/kg/day i.p.): 43.0 ± 1.08 mg/dL
- Creatinine ([7]; 200 mg/kg/day i.p.): 0.33 ± 0.02 mg/dL
- Urea ([7]; 200 mg/kg/day i.p.): 47.80 ± 2.01 mg/dL
SMILES: CC1([C@@H]2CC=C(C=O)CC2)CO1 (stereo partly shown) [perillaldehyde 8,9-epoxide]
- changes in body or organ masses (in words) ([1]; healthy and S-180 mice, 100 and 200 mg/kg/day i.p.): did not cause changes in body or organ masses
- ALT ([3]; 100 mg/kg/day i.p.): 55.25 ± 6.26 U/L
- AST ([3]; 100 mg/kg/day i.p.): 100.5 ± 5.97 U/L
- ALT ([3]; 200 mg/kg/day i.p.): 47.75 ± 4.64 U/L
- AST ([3]; 200 mg/kg/day i.p.): 78.75 ± 3.17 U/L
- tumor growth inhibition rate ([5]; 100 mg/kg/day i.p.): 38.4%
- tumor growth inhibition rate ([5]; 200 mg/kg/day i.p.): 58.7%
- IC50 (median inhibitory concentration able to induce 50% of maximal effect) [9]: less than 4.0 µg/mL
- inhibition percentage (GI%) compared with perillyl alcohol [10]: higher inhibition percentage in all cell lines tested
- changes in hepatic and renal parameters (AST, ALT, urea, creatinine; in words) ([7]; healthy and S-180 mice, at the doses tested (100 and 200 mg/kg/day i.p.)): does not cause changes in hepatic and renal parameters
- ALT ([7]; 100 mg/kg/day i.p.): 35.0 ± 2.2 U/L
- AST ([7]; 100 mg/kg/day i.p.): 178.0 ± 5.0 U/L
- ALT ([7]; 200 mg/kg/day i.p.): 36.0 ± 3.5 U/L
- AST ([7]; 200 mg/kg/day i.p.): 208.3 ± 20.6 U/L
- Histopathological analyses of the liver, spleen, and kidneys (morphology) ([8]; light microscopy, hematoxylin-eosin, after 7 days i.p. treatment): free from any morphological changes

SMILES: C=C(C)[C@@H]1CC=C(CO)CC1 [perillyl alcohol, (S)-(−)-perillyl alcohol]
- tumor growth inhibition rate ([5]; 100 mg/kg/day i.p.): 35.3%
- tumor growth inhibition rate ([5]; 200 mg/kg/day i.p.): 45.4%

Reference: paper PMC4730278, “In Vivo Anti-Tumor Activity and Toxicological Evaluations of Perillaldehyde 8,9-Epoxide, a Derivative of Perillyl Alcohol” (International Journal of Molecular Sciences, 2016)
